# In patent publication US20250313563A1, “GLYCOGEN SYNTHASE KINASE 3 INHIBITORS AND USES THEREOF” (The Broad Institute, Inc., priority 2022, published 2025):
# Read-outs that look alike come from different tables or passages of the source.
# Tests used:
# [1] = molecular target: GSK3α (GST-full length GSK3α) (Homo sapiens (Human), UniProt P49840); experiment: GSK3α TR-FRET kinase assay; format: biochemical
# Method in brief: (§1)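 Compound was preincubated 30 min with 1 nM GST-GSK3 enzyme. Reaction ran 100 min at ambient temperature in Tris pH 7.5/MgCl2 with 200 nM biotinylated pS645-glycogen synthase 631-650 peptide and ATP (4 μM GSK3α, 2 μM GSK3b, or 1 mM). The EDTA-stopped reaction was read by TR-FRET (Tb-anti-pSer641/streptavidin-d2), and IC50s were fitted.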
# [2] = molecular target: GSK3b (GST-full length GSK3b) (Homo sapiens (Human), UniProt P49841); experiment: GSK3b TR-FRET kinase assay; format: biochemical
# Method in brief: as §1
# [3] = 1 nM GSK3α, 4 μM ATP, 30 minute preincubation, Table 16, read-out: GSK3-A TR-FRET BIOCHEMICAL (TR-FRET)
# [4] = 1 nM GSK3b, 2 μM ATP, 30 minute preincubation, Table 16, read-out: GSK3-B TR-FRET BIOCHEMICAL (TR-FRET)
# [5] = 1 nM GSK3α, 4 μM ATP, 30 minute preincubation, geometric mean, read-out: GSK3-A TR-FRET BIOCHEMICAL (TR-FRET), GMean, IC50
# [6] = 1 nM GSK3b, 2 μM ATP, 30 minute preincubation, geometric mean, read-out: GSK3-B TR-FRET BIOCHEMICAL (TR-FRET), GMean, IC50
# [7] = 1 nM GSK3α, 4 μM ATP, 30 minute preincubation, Table 16, read-out: GSK3-A TR-FRET BIOCHEMICAL (TR-FRET), IC50
# [8] = 1 nM GSK3b, 2 μM ATP, 30 minute preincubation, Table 16, read-out: GSK3-B TR-FRET BIOCHEMICAL (TR-FRET), IC50
# [9] = 1 nM GSK3α, 4 μM ATP, 30 minute preincubation, read-out: GSK3-A TR-FRET BIOCHEMICAL (TR-FRET), IC50
# [10] = 1 nM GSK3b, 2 μM ATP, 30 minute preincubation, read-out: GSK3-B TR-FRET BIOCHEMICAL (TR-FRET), IC50
# [11] = read-out: GSK3-A (TR-FRET 1 mM ATP), GMean, IC50, 1 mM ATP, geometric mean
# [12] = read-out: GSK3-B (TR-FRET 1 mM ATP), GMean, IC50, 1 mM ATP, geometric mean
# Sequence of GSK3α (GST-full length GSK3α) (P49840 whole entry): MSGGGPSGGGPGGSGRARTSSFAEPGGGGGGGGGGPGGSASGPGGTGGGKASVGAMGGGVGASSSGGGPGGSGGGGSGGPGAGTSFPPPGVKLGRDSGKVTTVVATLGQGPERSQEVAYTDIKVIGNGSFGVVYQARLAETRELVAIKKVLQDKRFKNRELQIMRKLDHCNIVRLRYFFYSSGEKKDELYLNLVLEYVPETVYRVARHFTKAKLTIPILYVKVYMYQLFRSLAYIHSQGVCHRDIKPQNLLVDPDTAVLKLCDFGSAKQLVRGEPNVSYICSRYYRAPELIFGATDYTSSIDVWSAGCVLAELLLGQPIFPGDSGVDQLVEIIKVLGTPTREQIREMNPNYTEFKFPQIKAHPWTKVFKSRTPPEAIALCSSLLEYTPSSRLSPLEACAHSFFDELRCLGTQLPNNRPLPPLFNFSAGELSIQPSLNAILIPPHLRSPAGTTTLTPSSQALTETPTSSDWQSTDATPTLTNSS
# Sequence of GSK3b (GST-full length GSK3b) (P49841 whole entry): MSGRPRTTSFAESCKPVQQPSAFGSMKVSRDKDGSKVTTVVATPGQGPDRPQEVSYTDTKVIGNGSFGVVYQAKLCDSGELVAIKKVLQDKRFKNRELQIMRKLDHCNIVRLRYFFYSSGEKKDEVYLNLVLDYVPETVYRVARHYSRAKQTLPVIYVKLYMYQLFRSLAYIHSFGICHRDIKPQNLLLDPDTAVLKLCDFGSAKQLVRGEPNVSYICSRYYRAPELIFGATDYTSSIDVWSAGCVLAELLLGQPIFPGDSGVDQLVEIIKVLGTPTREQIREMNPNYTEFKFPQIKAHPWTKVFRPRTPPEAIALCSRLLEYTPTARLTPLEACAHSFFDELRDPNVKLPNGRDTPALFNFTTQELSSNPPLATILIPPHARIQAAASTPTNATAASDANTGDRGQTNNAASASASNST
smiles,measurement,setting,value
CN(C)C(=O)c1cccc(S(=O)(=O)N2CCC3(CC2)C2=C(CC(C)(C)CC2=O)Nc2n[nH]cc23)c1 [Compound 947247],IC50,[1]; [3],≤ 0.1 µM
same,IC50,[2]; [4],≤ 0.1 µM
CC1(C)CC(=O)C2=C(C1)Nc1n[nH]cc1C2(C)c1cccc(Br)c1 (centres unmarked) [Compound 789277],IC50,[1]; [5],≤ 0.1 µM
same,IC50,[2]; [6],0.1 to 1 µM
CC1(C)CC(=O)C2=C(C1)Nc1n[nH]cc1[C@@]21CO[C@H](c2ccccc2)C1 [Compound 946072],IC50,[1]; [3],≤ 0.1 µM
same,IC50,[2]; [4],0.1 to 1 µM
CCC1(c2cccc(-c3ccn(C)n3)c2)C2=C(CC(C)(C)CC2=O)Nc2n[nH]c(C)c21 (centres unmarked) [Compound 913039],IC50,[1]; [7],1 to 5 µM
same,IC50,[2]; [8],> 5 µM
CCC1(c2cccc(Br)c2)C2=C(CC(C)NC2=O)Nc2n[nH]cc21 (centres unmarked) [Compound 913225],IC50,[1]; [9],0.1 to 1 µM
same,IC50,[2]; [10],1 to 5 µM
CC[C@@]1(c2cccc(C(F)(F)F)c2)C2=C(Nc3n[nH]cc31)C(C)(C)N(C)C2=O [Compound 918251],IC50,[1]; [3],> 5 µM
same,IC50,[2]; [4],> 5 µM
CCC1(c2cccc(-c3c(C)nn(C)c3C)c2)C2=C(CC(C)(C)CC2=O)Nc2n[nH]cc21 (centres unmarked) [Compound 883851],IC50,[1]; [7],≤ 0.1 µM
same,IC50,[2]; [8],≤ 0.1 µM
CCC1(c2cccc(-c3cc(OC)ncc3F)c2)C2=C(CC(C)(C)CC2=O)Nc2n[nH]cc21 (centres unmarked) [Compound 932630],IC50,[1]; [7],≤ 0.1 µM
same,IC50,[2]; [8],≤ 0.1 µM
CCC1(c2cccc(-c3ccnc(C)c3)c2)C2=C(CC(C)(C)CC2=O)Nc2n[nH]c(C)c21 (centres unmarked) [Compound 913018],IC50,[1]; [7],≤ 0.1 µM
same,IC50,[1]; [11],0.1 to 1 µM
same,IC50,[2]; [8],≤ 0.1 µM
same,IC50,[2]; [12],1 to 5 µM
CC1(C)CC(=O)C2=C(C1)Nc1n[nH]cc1C21CCN(S(=O)(=O)c2cc(F)ccc2F)CC1 [Compound 948121],IC50,[1]; [3],≤ 0.1 µM
same,IC50,"[1]; GSK3-A (TR-FRET 1 mM ATP), GMean, IC50, 1 mM ATP, geometric mean",0.1 to 1 µM
same,IC50,[2]; [4],≤ 0.1 µM
same,IC50,"[2]; GSK3-B (TR-FRET 1 mM ATP), GMean, IC50, 1 mM ATP, geometric mean",0.1 to 1 µM
CCC1(c2cccc(Br)c2)C2=C(CC(C)CC2=O)Nc2n[nH]c(C(F)(F)F)c21 (centres unmarked) [Compound 826715],IC50,[1]; [5],≤ 0.1 µM
same,IC50,[2]; [6],≤ 0.1 µM
CC1(C)CC(=O)C2=C(C1)Nc1n[nH]cc1[C@@]21COC2(CCC2)C1 [Compound 917129],IC50,[1]; [9],0.1 to 1 µM
same,IC50,[2]; [10],0.1 to 1 µM
CC[C@]1(c2cccc(-c3cnn(CCOC)c3)c2)C2=C(CC(C)(C)CC2=O)Nc2n[nH]c(C)c21 [Compound 913042],IC50,[1]; [7],> 5 µM
same,IC50,[2]; [8],> 5 µM
CC1(C)CC2=C(C(=O)N1)C1(CCN(S(C)(=O)=O)CC1)c1c[nH]nc1N2 [Compound 943959],IC50,[1]; [9],≤ 0.1 µM
same,IC50,[2]; [10],0.1 to 1 µM
CCC1(c2cccc(C(F)(F)F)c2)C2=C(CC(C)CC2=O)Nc2n[nH]cc21 (centres unmarked) [Compound 810453],IC50,[1]; [5],> 5 µM
same,IC50,[2]; [6],> 5 µM
CCC1(c2cccc(-c3cn[nH]c3)c2)C2=C(CC(C)(C)NC2=O)Nc2n[nH]c(C)c21 (centres unmarked) [Compound 945459],IC50,[1]; [9],≤ 0.1 µM
same,IC50,[2]; [10],≤ 0.1 µM
CC(C)(C)Cc1[nH]nc2c1C1(CCN(c3ccccc3)CC1)C1=C(CC(C)(C)CC1=O)N2 [Compound 92315],IC50,[1]; [11],> 5 µM
same,IC50,[2]; [12],> 5 µM
CC[C@]1(c2cccc(-c3ccnc4c3CCCC4)c2)C2=C(CN(Cc3ccccc3)C2=O)Nc2n[nH]cc21 [Compound 948552],IC50,[1]; [9],0.1 to 1 µM
same,IC50,[2]; [10],> 5 µM
CC[C@]1(c2cccc([C@H](C)c3ncccn3)c2)C2=C(CC(C)(C)CC2=O)Nc2n[nH]cc21 [Compound 948060],IC50,[1]; [3],≤ 0.1 µM
same,IC50,[1]; [11],0.1 to 1 µM
same,IC50,[2]; [4],≤ 0.1 µM
same,IC50,[2]; [12],1 to 5 µM
CCC1(c2cccc(N3CCCC3)c2)C2=C(CC(C)(C)CC2=O)Nc2n[nH]c(C(F)(F)F)c21 (centres unmarked) [Compound 810506],IC50,[1]; [5],≤ 0.1 µM
same,IC50,[2]; [6],≤ 0.1 µM
CCC1(c2cccc(S(C)(=O)=O)c2)C2=C(CC(C)(C)NC2=O)Nc2n[nH]c(C)c21 (centres unmarked) [Compound 947395],IC50,[1]; [9],≤ 0.1 µM
same,IC50,[1]; [11],0.1 to 1 µM
same,IC50,[2]; [10],≤ 0.1 µM
same,IC50,[2]; [12],0.1 to 1 µM
CCC1(c2cccc(Br)c2)C2=C(CC(C)CC2=O)Nc2n[nH]c(C(F)(F)F)c21 (centres unmarked) [Compound 828849],IC50,[1]; [5],0.1 to 1 µM
same,IC50,[2]; [6],0.1 to 1 µM
CC[C@@]1(c2cccc(N(C)c3cnccn3)c2)C2=C(CC(C)(C)CC2=O)Nc2n[nH]cc21 [Compound 915316],IC50,[1]; [7],≤ 0.1 µM
same,IC50,[2]; [8],≤ 0.1 µM
CCC1(c2cccc(-c3cnn(CCOC)c3)c2)C2=C(CC(C)(C)NC2=O)Nc2n[nH]cc21 (centres unmarked) [Compound 949114],IC50,[1]; [5],1 to 5 µM
same,IC50,[2]; [6],> 5 µM
CC[C@]1(c2cc(-c3cnn(C)c3)ccc2F)C2=C(CC(C)(C)CC2=O)Nc2n[nH]cc21 [Compound 909223],IC50,[1]; [7],> 5 µM
same,IC50,[2]; [8],> 5 µM
CCC1(c2cccc(N3CCCC3)c2)C2=C(CC(C)(C)CC2=O)Nc2n[nH]c(C)c21 (centres unmarked) [Compound 883874],IC50,[1]; [7],≤ 0.1 µM
same,IC50,[1]; [11],≤ 0.1 µM
same,IC50,[2]; [8],≤ 0.1 µM
same,IC50,[2]; [12],0.1 to 1 µM
CC[C@@]1(c2cccc(-c3ccnn3-c3ccc(F)cc3)c2)C2=C(CC(C)(C)NC2=O)Nc2n[nH]cc21 [Compound 949396],IC50,[1]; [7],> 5 µM
same,IC50,[2]; [8],> 5 µM
CC1(C)CC(=O)C2=C(C1)Nc1n[nH]cc1C2(C)c1cc(C(F)(F)F)ccc1F (centres unmarked) [Compound 810376],IC50,[1]; [5],≤ 0.1 µM
same,IC50,[2]; [6],0.1 to 1 µM
CCC1(c2cccc(N(C)c3cccnn3)c2)C2=C(CC(C)(C)CC2=O)Nc2n[nH]cc21 (centres unmarked) [Compound 911975],IC50,[1]; [7],≤ 0.1 µM
same,IC50,[1]; [11],0.1 to 1 µM
same,IC50,[2]; [8],≤ 0.1 µM
same,IC50,[2]; [12],1 to 5 µM
C[C@H]1CC[C@]2(C1)C1=C(CC(C)(C)CC1=O)Nc1n[nH]cc12 [Compound 883840],IC50,[1]; [3],0.1 to 1 µM
same,IC50,[2]; [4],0.1 to 1 µM
CC1(C)CC(=O)C2=C(C1)Nc1n[nH]cc1C21CCc2c(F)cccc21 (centres unmarked) [Compound 801357],IC50,[1]; [5],0.1 to 1 µM
same,IC50,[2]; [6],> 1.67 µM
CCc1cccc(C2(CC)C3=C(CC(C)(C)CC3=O)Nc3n[nH]cc32)c1 (centres unmarked) [Compound 949391],IC50,[1]; [3],1 to 5 µM
same,IC50,[2]; [4],> 5 µM
CCC1(c2cccc(C(C)c3ncccn3)c2)C2=C(CC(C)(C)CC2=O)Nc2n[nH]cc21 (centres unmarked) [Compound 948061],IC50,[1]; [3],0.1 to 1 µM
same,IC50,[2]; [4],1 to 5 µM
CCC1(c2cccc(S(=O)(=O)C3CC3)c2)C2=C(CC(C)(C)CC2=O)Nc2n[nH]c(C(F)(F)F)c21 (centres unmarked) [Compound 945713],IC50,[1]; [3],≤ 0.1 µM
same,IC50,[1]; [11],≤ 0.1 µM
same,IC50,[2]; [4],≤ 0.1 µM
same,IC50,[2]; [12],≤ 0.1 µM
CCC1(c2cccc(C(F)(F)F)c2)C2=C(CCN(c3ccc(OC)cc3)C2=O)Nc2n[nH]cc21 (centres unmarked) [Compound 947332],IC50,[1]; [9],≤ 0.1 µM
same,IC50,[2]; [10],0.1 to 1 µM
CC(=O)N1CC2(C1)C1=C(CC(C)(C)CC1=O)Nc1n[nH]cc12 [Compound 893314],IC50,[1]; [7],1 to 5 µM
same,IC50,[2]; [8],> 5 µM
CC[C@@]1(c2cccc(-c3cnn(Cc4ccc(C(F)(F)F)cc4)c3)c2)C2=C(CC(C)(C)NC2=O)Nc2n[nH]cc21 [Compound 949511],IC50,[1]; [7],> 5 µM
same,IC50,[2]; [8],> 5 µM
CCC1(c2cccc(-c3cnn(C)c3)c2)C2=C(CC(C)(C)NC2=O)Nc2n[nH]c(C(F)F)c21 (centres unmarked) [Compound 949171],IC50,[1]; [5],≤ 0.1 µM
same,IC50,[1]; [11],≤ 0.1 µM
same,IC50,[2]; [6],≤ 0.1 µM
same,IC50,[2]; [12],1 to 5 µM
CCC1(c2cccc(-c3ccnn3C)c2)C2=C(CC3(CCOCC3)NC2=O)Nc2n[nH]cc21 (centres unmarked) [Compound 948516],IC50,[1]; [5],≤ 0.1 µM
same,IC50,[2]; [6],0.1 to 1 µM
CC1(C)CC(=O)C2=C(C1)Nc1n[nH]cc1C21CCN(S(=O)(=O)c2ccc3c(c2)OCCO3)CC1 [Compound 947900],IC50,[1]; [3],≤ 0.1 µM
same,IC50,[2]; [4],≤ 0.1 µM
CC1(C)CC(=O)C2=C(C1)Nc1n[nH]cc1C21CN(c2ccncn2)C1 [Compound 909209],IC50,[1]; [7],1 to 5 µM
same,IC50,[2]; [8],1 to 5 µM
